# Key:
# PBMC = settings: 12.5 µM
Structure (SMILES),"Average (percentage cell inhibition), Mastoparan PBMC (PBMC) [%]","Average (percentage cell inhibition), Dmastoparan MDA-MB231 12.5uM (MDA-MB-231 cells) [%]"
CC[C@H](C)[C@H](N)C(=O)N[C@@H](CC(N)=O)C(=O)N[C@@H](CC(C)C)C(=O)N[C@@H](CCCCN)C(=O)N[C@@H](C)C(=O)N[C@@H](CC(C)C)C(=O)N[C@@H](C)C(=O)N[C@@H](C)C(=O)N[C@@H](CC(C)C)C(=O)N[C@@H](C)C(=O)N[C@@H](CCCCN)C(=O)N[C@@H](CCCCN)C(=O)N[C@H](C(=O)N[C@@H](C)C(N)=O)[C@@H](C)CC [A14],6.423,12.3553
CC[C@H](C)[C@H](N)C(=O)N[C@@H](CC(N)=O)C(=O)N[C@@H](CC(C)C)C(=O)N[C@@H](Cc1c[nH]c2ccccc12)C(=O)N[C@@H](C)C(=O)N[C@@H](CC(C)C)C(=O)N[C@@H](C)C(=O)N[C@@H](C)C(=O)N[C@@H](CC(C)C)C(=O)N[C@@H](C)C(=O)N[C@@H](CCCCN)C(=O)N[C@@H](CCCCN)C(=O)N[C@H](C(=O)N[C@@H](CC(C)C)C(N)=O)[C@@H](C)CC [W4],30.4839,50.1282
CC[C@H](C)[C@H](N)C(=O)N[C@@H](CC(N)=O)C(=O)N[C@@H](CC(C)C)C(=O)N[C@@H](CCCCN)C(=O)N[C@@H](C)C(=O)N[C@@H](CC(C)C)C(=O)N[C@@H](C)C(=O)N[C@@H](C)C(=O)N[C@@H](CC(C)C)C(=O)N[C@@H](C)C(=O)N[C@@H](CCCCN)C(=O)N[C@@H](CCCCN)C(=O)N[C@H](C(=O)N[C@@H](CCC(=O)O)C(N)=O)[C@@H](C)CC [E14],2.998,33.8434
CC[C@H](C)[C@H](N)C(=O)N[C@@H](CC(N)=O)C(=O)N[C@@H](CC(C)C)C(=O)N[C@@H](CCCCN)C(=O)N[C@@H](C)C(=O)N[C@@H](CC(C)C)C(=O)N[C@@H](C)C(=O)N[C@@H](C)C(=O)N[C@@H](CC(C)C)C(=O)N[C@@H](C)C(=O)N[C@@H](CCCCN)C(=O)N[C@@H](CCCCN)C(=O)N[C@H](C(=O)N[C@@H](CC(C)C)C(N)=O)[C@@H](C)O [T13],3.307,38.2444
CC[C@H](C)[C@H](N)C(=O)N[C@@H](CC(N)=O)C(=O)N[C@@H](CC(C)C)C(=O)N[C@@H](CCCCN)C(=O)N[C@@H](C)C(=O)N[C@@H](CCCCN)C(=O)N[C@@H](C)C(=O)N[C@@H](C)C(=O)N[C@@H](CC(C)C)C(=O)N[C@@H](C)C(=O)N[C@@H](CCCCN)C(=O)N[C@@H](CCCCN)C(=O)N[C@H](C(=O)N[C@@H](CC(C)C)C(N)=O)[C@@H](C)CC [K6],-1.883,7.2133
CC[C@H](C)[C@H](N)C(=O)N[C@@H](CC(N)=O)C(=O)N[C@@H](CC(C)C)C(=O)N[C@@H](CCCCN)C(=O)N[C@@H](C)C(=O)N[C@@H](CC(C)C)C(=O)N[C@@H](C)C(=O)N[C@@H](C)C(=O)N[C@@H](CC(C)C)C(=O)N[C@@H](C)C(=O)N[C@@H](CCCCN)C(=O)N[C@@H](CCCCN)C(=O)N[C@H](C(=O)N1CCC[C@H]1C(N)=O)[C@@H](C)CC [P14],-11.4473,0.693
CC[C@H](C)[C@H](N)C(=O)N[C@@H](CC(N)=O)C(=O)N[C@@H](CC(C)C)C(=O)N[C@@H](CCCCN)C(=O)N[C@@H](C)C(=O)N[C@@H](CC(C)C)C(=O)N[C@H](C(=O)N[C@@H](C)C(=O)N[C@@H](CC(C)C)C(=O)N[C@@H](C)C(=O)N[C@@H](CCCCN)C(=O)N[C@@H](CCCCN)C(=O)N[C@H](C(=O)N[C@@H](CC(C)C)C(N)=O)[C@@H](C)CC)[C@@H](C)CC [I7],39.466,72.6071
CC[C@H](C)[C@H](N)C(=O)N[C@@H](CC(N)=O)C(=O)N[C@@H](CC(C)C)C(=O)N[C@@H](CCCCN)C(=O)N[C@@H](C)C(=O)N[C@@H](CC(C)C)C(=O)N[C@@H](C)C(=O)N[C@@H](C)C(=O)N[C@@H](CC(C)C)C(=O)N[C@@H](C)C(=O)N[C@@H](CCCCN)C(=O)N[C@@H](Cc1ccc(O)cc1)C(=O)N[C@H](C(=O)N[C@@H](CC(C)C)C(N)=O)[C@@H](C)CC [Y12],22.3509,47.3973
CC[C@H](C)[C@H](N)C(=O)N[C@@H](CC(N)=O)C(=O)N[C@@H](CC(C)C)C(=O)N[C@@H](CCCCN)C(=O)N[C@@H](C)C(=O)N[C@@H](CCC(N)=O)C(=O)N[C@@H](C)C(=O)N[C@@H](C)C(=O)N[C@@H](CC(C)C)C(=O)N[C@@H](C)C(=O)N[C@@H](CCCCN)C(=O)N[C@@H](CCCCN)C(=O)N[C@H](C(=O)N[C@@H](CC(C)C)C(N)=O)[C@@H](C)CC [Q6],-3.273,-10.4473
CC[C@H](C)[C@H](N)C(=O)N[C@@H](CC(N)=O)C(=O)N[C@@H](CC(C)C)C(=O)N[C@@H](CCCCN)C(=O)N[C@@H](C)C(=O)N[C@@H](CC(C)C)C(=O)N[C@@H](C)C(=O)N[C@@H](C)C(=O)N[C@@H](CC(C)C)C(=O)N[C@@H](C)C(=O)N[C@@H](CCCCN)C(=O)N1CCC[C@H]1C(=O)N[C@H](C(=O)N[C@@H](CC(C)C)C(N)=O)[C@@H](C)CC [P12],-2.814,-19.0406
CC[C@H](C)[C@H](N)C(=O)N[C@@H](CC(N)=O)C(=O)N[C@@H](CC(C)C)C(=O)N[C@@H](CCCCN)C(=O)N[C@@H](C)C(=O)N[C@@H](Cc1c[nH]c2ccccc12)C(=O)N[C@@H](C)C(=O)N[C@@H](C)C(=O)N[C@@H](CC(C)C)C(=O)N[C@@H](C)C(=O)N[C@@H](CCCCN)C(=O)N[C@@H](CCCCN)C(=O)N[C@H](C(=O)N[C@@H](CC(C)C)C(N)=O)[C@@H](C)CC [W6],18.297,42.8966
CC[C@H](C)[C@H](N)C(=O)N[C@@H](CC(N)=O)C(=O)N[C@@H](CC(C)C)C(=O)N[C@@H](CCCCN)C(=O)N1CCC[C@H]1C(=O)N[C@@H](CC(C)C)C(=O)N[C@@H](C)C(=O)N[C@@H](C)C(=O)N[C@@H](CC(C)C)C(=O)N[C@@H](C)C(=O)N[C@@H](CCCCN)C(=O)N[C@@H](CCCCN)C(=O)N[C@H](C(=O)N[C@@H](CC(C)C)C(N)=O)[C@@H](C)CC [P5],0.2776,25.1894
CC[C@H](C)[C@H](N)C(=O)N[C@@H](CC(N)=O)C(=O)N[C@@H](CC(C)C)C(=O)N[C@@H](CCCCN)C(=O)N[C@@H](C)C(=O)N[C@@H](CC(C)C)C(=O)N[C@@H](C)C(=O)N[C@@H](C)C(=O)N[C@@H](CC(C)C)C(=O)N[C@@H](C)C(=O)N[C@@H](CCCCN)C(=O)N[C@@H](CCCCN)C(=O)N[C@H](C(=O)N[C@@H](CO)C(N)=O)[C@@H](C)CC [S14],-3.76,38.8299
CC[C@H](C)[C@H](N)C(=O)N[C@@H](CC(N)=O)C(=O)N[C@@H](CO)C(=O)N[C@@H](CCCCN)C(=O)N[C@@H](C)C(=O)N[C@@H](CC(C)C)C(=O)N[C@@H](C)C(=O)N[C@@H](C)C(=O)N[C@@H](CC(C)C)C(=O)N[C@@H](C)C(=O)N[C@@H](CCCCN)C(=O)N[C@@H](CCCCN)C(=O)N[C@H](C(=O)N[C@@H](CC(C)C)C(N)=O)[C@@H](C)CC [S3],5.178,12.1099

# Source: article PMC12748989 (Nature Communications, 2025)
